Measured values taken from patent US5086070A, “4-benzyl-1H-indoles and anti-arrthymic use thereof” (Roussel Uclaf, priority 1989, dated 1992).
pIC50: −log10 of the molar value. Like-named read-outs stand apart in the source and are kept apart here.

Tests used:
[1] = system: ventricular extrasystoles; assay: Anti-arhythmic action in the rat (aconitine-induced ventricular extrasystoles); assay type: in vivo; conditions: read-out: Percentage of protection (percentage increase in the aconitine dose necessary to initiate the ventricular extrasystoles); for change in vivo at 1 mg/kg / change in vivo at 5 mg/kg: iv; for change in vivo at 25 mg/kg: po, 1 h
Protocol: Male rats weighing 300-350 g, anaesthetized by intraperitoneal route with 1.20 g/kg of urethane, were tracheotomized and subjectd to artificial respiration (40-50 insufflations of 3 ml/minute). Needles were implanted under the skin to record the electrocardiogram of the rats on reception of the DII signal. The test products were administered intravenously or orally. After five minutes in the case of intravenous administration and one hour in the case of oral administration, the jugular vein of the rats was perfused with 10 micrograms/minutes under 0.21 ml of an aconitine solution and the time taken for the first ventricular extrasystoles to appear was noted. The amount of aconitine perfused was calculated, then expressed as a function of the body weight of the animal.
The percentage increase in the aconitine dose necessary to initiate the ventricular extrasystoles after treatment was calculated relative to the control animals.

blood-platelets = assay: Blood-platelet aggregation, in vitro, on plasma rich in blood-platelets (PRP); assay type: cell-based; conditions: Oryctolagus cuniculus, 2 min, rabbit PRP, 2 minutes incubation
Source text: 3) Test for the Activity of Anti-Aggregation of Blood-Platelets. Blood-Platelet Aggregation, in Vitro, on Plasma Rich in Blood-Platelets (PRP)
Measurement of blood-platelet aggregation was made according to the turbidimetric method of Born et al 1963, J. Physiol., Vol. 168, p. 178. Rabbit's blood was removed on Na citrate at 3.2% of cardiac puncture and the plasma rich in blood-platelets was obtained by centrifuging and adjustment of the number of blood-platelets to […]. The aggregation was induced by collagen (40 micrograms per ml of PRP) or PAF acether (0.05 micromoles per liter of PRP). The test compounds were incubated at different concentrations in the PRP 2 minutes before the aggregating agent. The results are expressed in IC50 (concentration inhibiting the aggregation by 50% relative to the control curves).

caudal artery = assay: Test for anti-calcic activity in vitro, isolated caudal artery of the rat (contraction induced by calcium chloride); assay type: cell-based; conditions: caudal artery rings of Wistar rats, depolarizing solution KCl 100 mM, CaCl2 2.5 mM, phentolamine 10^-5 M, 37° C., read-out: IC50 (concentration which inhibited by 50% the contraction induced by calcium chloride)
Protocol: Isolated caudal artery of the rat.
When the contractile responses became reproducible, the test product was added in increasing concentrations 15 minutes before each contraction.

mouse = assay: Acute toxicity, oral, mouse; assay type: in vivo
Protocol: The lethal doses LD0 of the various compounds tested were evaluated after oral administration to a mouse. […]

[2] = PAF acether 0.05 micromoles per liter of PRP, read-out: IC50, induction by PAF ACETHER (concentration inhibiting the aggregation by 50%)
[3] = collagen 40 micrograms per ml of PRP, read-out: IC50, induction by COLLAGEN (concentration inhibiting the aggregation by 50%)

Row | SMILES | change in vivo at 1 mg/kg [1] | change in vivo at 25 mg/kg [1] | pIC50 (blood-platelets; [2]) | pIC50 (blood-platelets; [3]) | pIC50 (caudal artery) | change in vivo at 5 mg/kg [1] | LD0 (maximum dose which did not cause any deaths over 8 days) (mouse)
1 | Cn1ccc2c(C(=O)c3ccccc3OCC(O)CNC(C)(C)C)cccc21 (racemic) [Example 10, (±)[2-[3-[(1,1-dimethylethyl)-amino]-2-hydroxy-propoxy]-phenyl]-(1-methyl-1H-indol-4-yl) methanone] | 133% | 124% | 4.15 | 4.68 | – | – | –
2 | Cn1ccc2c(Cc3ccccc3OCC(O)CNC(C)(C)C)cccc21 (racemic) [Example 11, (±) 1-[(1,1-dimethylethyl)-amino]-3-[2-[(1-methyl-1H-indol-4-yl)-methyl]-phenoxy]-2-propanol] | – | 81% | 4.62 | 5.00 | 5.52 | 257% | –
3 | Cn1ccc2c(C(O)c3ccccc3OCCCNC(C)(C)C)cccc21 (racemic) [Example 13, (±) α-[2-[3-[(1,1-dimethylethyl)-amino]-propoxy]-phenyl-1-methyl-1H-indol-4-methanol] | – | – | 4.15 | 4.22 | – | 140% | –
4 | CC(C)N(CC(O)COc1ccccc1C(=O)c1cccc2[nH]ccc12)C(C)C (racemic) [Example 18, (±) [2-[3-[[bis-1-methylethyl)-amino]-2-hydroxy-propoxy]-phenyl]-(1H-indol-4-yl) methanone] | – | – | – | – | 5.14 | 135% | –
5 | CN1CCN(CC(O)COc2ccccc2C(=O)c2cccc3[nH]ccc23)CC1 (racemic) [Example 19, (±) [2-[2-hydroxy-3-(4-methyl-1-piperazinyl)-propoxy]-phenyl]-(1H-indol-4-yl) methanone] | – | – | – | – | – | 142% | –
6 | O=C(c1ccccc1OCC(O)CNC1CCCCC1)c1cccc2[nH]ccc12 (racemic) [Example 21, (±) [2-[(3-cyclohexylamino)-2-hydroxylpropoxy]-phenyl]-(1H-indol-4-yl) methanone] | – | – | – | – | – | 124% | –
7 | C=C(c1ccccc1OCC(O)CNC(C)(C)C)c1cccc2[nH]ccc12 (racemic) [Example 22, (±) 3-[(1,1-dimethylethyl)-amino]-[2-[1-(1H-indol-4-yl)-ethenyl]-phenoxy]-2-propanol] | – | 33% | 4.85 | 5.05 | 5.42 | 84% | 200 mg/kg
8 | CC(c1ccccc1OCC(O)CNC(C)(C)C)c1cccc2[nH]ccc12 (racemic) [Example 23, (±) 3-[(1,1-dimethylethyl)-amino]-1-[2-[1-(1H-indol-4-yl)-ethyl]-phenoxy]-2-propanol] | – | – | 4.60 | 5.10 | 5.33 | 88% | –
9 | CON=C(c1ccccc1OCC(O)CNC(C)(C)C)c1cccc2[nH]ccc12 (racemic) [Example 25, (±) O-methyloxime of [2-[3-[(2,2-dimethylethyl)-amino]-2-hydroxypropoxy]-phenyl]-(1H-indol-4-yl) methanone] | – | – | – | – | – | 186% | –
10 | CC(C)(C)NCC(O)COc1ccccc1C(O)c1cccc2[nH]ccc12 (single isomer, unassigned) [Example 8, α-[2-[3-[(1,1-dimethylethyl)-amino]-2-hydroxy-propoxy]-phenyl]-1H-indole-4-methanol benzoate] | – | – | – | – | – | – | > 200 mg/kg
11 | CC(C)(C)NCC(O)COc1ccccc1C(O)c1cccc2[nH]ccc12 (single isomer, unassigned; isomer b) [Example 9, α-[2-[3-[(1,1-dimethylethyl)-amino]-2-hydroxy-propoxy]-phenyl]-1H-indole-4-methanol benzoate (Isomer B)] | – | 91% | – | – | – | > 165% | > 200 mg/kg
12 | CC(C)(C)NCCCOc1ccc(C(=O)c2cccc3[nH]ccc23)cc1 [Example 1, [4-[3-[(1,1-dimethyl-ethyl)-amino]-propoxy]-phenyl]-(1H-indol-4-yl)-methanone] | – | – | – | – | 6.34 | – | –
13 | CC(C)(C)NCC(O)COc1ccc(C(=O)c2cccc3[nH]ccc23)cc1 (stereo not drawn) [Example 2, [4-[3-[(1,1-dimethyl ethyl)-amino]-2-hydroxypropoxy]-phenyl]-(1H-indol-4-yl)-methanone] | – | 82% | – | – | 5.72 | 93% | –
14 | CC(C)(C)NCCCOc1ccccc1C(=O)c1cccc2[nH]ccc12.O=C(O)c1ccccc1 [Example 3, [2-[3-[(1,1-dimethyl ethyl)-amino]-propoxy]-phenyl]-(1H-indol-4-yl)-methanone benzoate] | – | 52% | 4.33 | 4.51 | 5.72 | 202% | 100 mg/kg
15 | CC(C)(C)NCC(O)COc1ccccc1C(=O)c1cccc2[nH]ccc12 (stereo not drawn) [Example 4, [2-[3-[(1,1-dimethyl ethyl)-amino]-2-hydroxypropoxy]-phenyl]-(1H-indol-4-yl)-methanone] | – | 73% | 4.26 | 5.02 | 5.21 | > 217% | –
16 | CC(C)(C)NCC(O)COc1ccccc1Cc1cccc2[nH]ccc12 (stereo not drawn) [Example 5, 1-[(1,1-dimethyl-ethyl)-amino]-3-[2-[(1H-indol-4-yl)-methyl]-phenoxy]-2-propanol] | – | – | 4.38 | 4.74 | 5.70 | – | > 200 mg/kg
17 | CC(C)(C)NCCCOc1ccccc1Cc1cccc2[nH]ccc12 [Example 6, N-(1,1-dimethylethyl)-3-[2-[(1H-indol-4-yl)-methyl]-phenoxy]-propanamine benzoate] | – | – | 4.43 | 4.85 | 6.40 | – | –
18 | CC(C)(C)NCCCOc1ccccc1C(O)c1cccc2[nH]ccc12 (stereo not drawn) [Example 7, α-[2-[3-[(1,1-dimethylethyl)-amino]-propoxy]-phenyl]-1H-indol-4-methanol benzoate] | – | – | – | – | – | > 201% | 100 mg/kg
19 | Cn1ccc2c(C(=O)c3ccccc3OCCCNC(C)(C)C)cccc21 [Example 12, [2-[3-[(1,1-dimethylethyl)-amino]-propoxy]-phenyl]-(1-methyl-1H-indol-4-yl)methanone] | 99% | – | 4.40 | 4.40 | 5.32 | – | –
20 | CC(C)(C)NCC(O)COc1ccccc1C(=O)c1cccc2c1CC(=O)N2 (stereo not drawn) [Example 15, 1,3-dihydro-4-[2-[3-[(1,1-dimethylethyl)-amino]-2-hydroxy-propoxy]-benzoyl]-2H-indol-2-one] | – | – | – | – | – | – | > 200 mg/kg
21 | CC(C)(C)NCCOc1ccccc1C(=O)c1cccc2[nH]ccc12 [Example 16, [2-[2-[(1,1-dimethylethyl)-amino]-ethoxy]-phenyl]-(1H-indol-4-yl)-methanone] | – | – | 4.00 | 4.24 | 5.96 | – | –
22 | C=C(c1ccccc1OCCCNC(C)(C)C)c1cccc2[nH]ccc12 [Example 24] | – | – | 4.85 | 5.10 | 5.51 | – | –
